Data: US20100099652A1, “NOVEL COMPOSITION BASED ON CHOLEST-4-EN-3-ONE OXIME” (TROPHOS, priority 2007, published 2010)
Values after ≈ are worked out from the molar mass of the structure shown.

Tests used:
[1] = Stability of cholest-4-en-3-one oxime in different oils (impurities by HPLC UV at 255 nm); assay type: physicochemical; settings: 15 mg/ml, 60° C., 15 days
Experimental: The stability of cholest-4-en-3-one oxime was tested in 12 different oils. The compound is added to the oil at a concentration of 15 mg/ml in the form of micronized powder, and the mixture is placed in an oven at 60° C. for 15 days. […] The major impurity obtained is cholestenone. Other impurities can also appear, certain of which are known (and known to be stable), whereas other impurities appearing are unknown, and the potential toxicity or stability of which is therefore not known.
The product is considered to be very stable (++, very stable) in a given oil if after the incubation for 15 days in the oven at 60° C., the percentage of the measured total area under the curve of the chromatogram obtained corresponding to peaks of degradation products of cholest-4-en-3-one oxime represents less than 1%, and these are known, stable products. The product is considered stable (+, stable) in an oil if after the 15 days spent in the oven at 60° C., the percentage of the measured total area under the curve of the chromatogram obtained corresponding to peaks of degradation products of cholest-4-en-3-one oxime represents less than 1%, but corresponds to unknown degradation products. The product is considered unstable (−, instable) in an oil if after the 15 days spent in the oven at 60° C., the percentage of the measured total area under the curve of the chromatogram obtained corresponding to peaks of degradation products of cholest-4-en-3-one oxime represents more than 1%.

[2] = Maximum solubility of cholest-4-en-3-one oxime in water and in different oils; assay type: physicochemical

solubility ([2]; castor oil, oil or lipid): < 15 mg/mL
solubility ([2]; cotton oil, oil or lipid): 28 mg/mL (≈ 70.1 mM)
solubility ([2]; ground nut oil, oil or lipid): < 15 mg/mL
solubility ([2]; oil or lipid, Mixture of medium-chain triglycerides (ESTASAN ®, MYGLIOL ®)): 45 mg/mL (≈ 113 mM)
solubility ([2]; olive oil, oil or lipid): 40 mg/mL (≈ 100 mM)
solubility ([2]; rapeseed oil, oil or lipid): < 15 mg/mL
solubility ([2]; sesame oil, oil or lipid): 35 mg/mL (≈ 87.6 mM)
solubility ([2]; soya oil, oil or lipid): 30 mg/mL (≈ 75.1 mM)
solubility ([2]; water): 0.001 mg/mL (≈ 0.0025 mM)
SMILES: CC(C)CCC[C@@H](C)[C@H]1CC[C@H]2[C@@H]3CCC4=CC(=NO)CC[C@]4(C)[C@H]3CC[C@]12C [cholest-4-en-3-one oxime]
stability ([1]; Almond oil): − (major instability of the product in the oil tested, with release of more than 1% degradation products, over 2 weeks at 60° C.)
stability ([1]; Caster oil): + (compound which is stable in the oil tested, with release of less than 1% unknown degradation products, over 2 weeks at 60° C.)
stability ([1]; Corn oil): − (major instability of the product in the oil tested, with release of more than 1% degradation products, over 2 weeks at 60° C.)
stability ([1]; Cotton oil): ++ (compound which is very stable in the oil tested, with release of less than 1% stable known degradation products, over 2 weeks at 60° C.)
stability ([1]; Ground nut oil): + (compound which is stable in the oil tested, with release of less than 1% unknown degradation products, over 2 weeks at 60° C.)
stability ([1]; Mixture of medium-chain triglycerides (ESTASAN ®, MYGLIOL ®)): ++ (compound which is very stable in the oil tested, with release of less than 1% stable known degradation products, over 2 weeks at 60° C.)
stability ([1]; Oleic acid): − (major instability of the product in the oil tested, with release of more than 1% degradation products, over 2 weeks at 60° C.)
stability ([1]; Olive oil): ++ (compound which is very stable in the oil tested, with release of less than 1% stable known degradation products, over 2 weeks at 60° C.)
stability ([1]; Rapeseed oil): + (compound which is stable in the oil tested, with release of less than 1% unknown degradation products, over 2 weeks at 60° C.)
stability ([1]; Sesame oil): ++ (compound which is very stable in the oil tested, with release of less than 1% stable known degradation products, over 2 weeks at 60° C.)
stability ([1]; Soya oil): ++ (compound which is very stable in the oil tested, with release of less than 1% stable known degradation products, over 2 weeks at 60° C.)
stability ([1]; Sunflower oil): − (major instability of the product in the oil tested, with release of more than 1% degradation products, over 2 weeks at 60° C.)
